For data set [1], the species on record is Cavia porcellus. The experiment in a line: The compound was tested for […] activity against guinea pig detrusor (bladder) strip mildly depolarized with 15 mM KCl. The class given is functional.
The nature of data set [2]: Tested for dissociation constant of compound at PH of 7.4. The class given is ADME. The conditions noted are these: pH 7.4.
For data set [3], the species on record is Cavia porcellus. Put plainly: The compound was tested for […] activity against guinea pig vascular tissue (portal vein) strip mildly depolarized with 15 mM KCl. The format is functional.
Data set [4] is filed under the species Cavia porcellus. Put plainly: Tested for relaxant activity of compound with 80 mM KCl. The format is functional.
The species entered for data set [5] is Cavia porcellus. Put plainly: Tested for percent increase in efflux rate constant with 54.6 uM of compound using guinea pig detrusor. The class given is functional.

Structures are written as SMILES. Some results are limits rather than exact numbers.

The term IC50 denotes the concentration that gives 50% inhibition. A high value points to weaker potency in that assay. As usually defined, the pKa is the pH at which an ionisable group is half protonated. Lower therefore signals a group that gives up its proton readily.

For the compound `C[C@@](O)(C(=O)Nc1ccc(S(=O)(=O)c2ccncc2)cc1)C(F)(F)F`, the IC50 in the data set listed under Cavia porcellus [1] is > 30000 nM.

In data set [2], `O=C(c1ccc(NC(=O)C(O)(C(F)F)C(F)F)cc1)c1ccccn1` returned a pKa of 7.5. Moreover, the IC50 stood at 3 nM in the data set filed under Cavia porcellus [3] and 70 nM in the data set filed under Cavia porcellus [1].

For `CC(O)(C(=O)Nc1ccc(S(=O)(=O)c2ccncc2)cc1)C(F)(F)F` (racemic), the IC50 in the data set listed under Cavia porcellus [1] was determined as 3800 nM.

In the case of `CC1(C)Oc2ccc(C#N)cc2[C@H](N2CCCC2=O)[C@H]1O` (single isomer, unassigned) [(-)-CROMAKALIM], the IC50 in the data set filed under Cavia porcellus [3] came to 20 nM; in the data set listed under Cavia porcellus [1] it was 570 nM.

On to `C[C@](O)(C(=O)Nc1ccc(S(=O)(=O)c2ccncc2)cc1)C(F)(F)F`, for which the IC50 in the data set filed under Cavia porcellus [4] worked out at 260000 nM; in the data set filed under Cavia porcellus [1], 1600 nM. Besides, in the data set listed under Cavia porcellus [5], the Increase turned out to be 40%.

Source of the values: ChEMBL document CHEMBL1127163, “Anilide tertiary carbinols: A new structural class of potent potassium channel openers” (Bioorg Med Chem Lett, 1993).
